Assay results taken from ChEMBL document CHEMBL1137502, “Design and evaluation of analogues of the bacterial cell-wall peptidoglycan motif L-Lys-D-Ala-D-Ala for use in a vancomycin biosensor” (2007).

System: Staphylococcus aureus
Test: Antibacterial activity against Staphylococcus aureus ATCC 25923 assessed as reduction of bacterial count by broth microdilution method
Assay type: functional

CN[C@H](CC(C)C)C(=O)N[C@H]1C(=O)N[C@@H](CC(N)=O)C(=O)N[C@H]2C(=O)N[C@H]3C(=O)N[C@H](C(=O)N[C@H](C(=O)O)c4cc(O)cc(O)c4-c4cc3ccc4O)[C@H](O)c3ccc(c(Cl)c3)Oc3cc2cc(c3O[C@@H]2O[C@H](CO)[C@@H](O)[C@H](O)[C@H]2O[C@H]2C[C@](C)(N)[C@H](O)[C@H](C)O2)Oc2ccc(cc2Cl)[C@H]1O [VANCOMYCIN]
Log10 cfu: 1
